Data on 30 molecules can be found in patent publication US11584765B2 (priority 2017, dated 2023).

This assay deals with C57BL/6 mice. The assay is described as follows: animal or person. It is filed as in vivo. The following applies: Mus musculus, sc, 0.5 h, s.c. administration, 30 min, 55° C. water, read-out: ED50 (mg/kg) at 30 min on C57BL/6 mice in Warm-water Tail-flick Test.
Turning to `CCOCC1(CCc2ccccc2)CCN(Cc2ccc(NC(=O)N(C)C)cc2)CC1` [Compound 116, 3-(4-((4-(ethoxymethyl)-4-phenethylpiperidin-1-yl)methyl)phenyl)-1,1-dimethylurea], the ED50 is greater than 10 mg/kg.

Take `CCOCC1(CCc2ccccc2)CCN(Cc2ccc(NC(=O)NC)cc2)CC1` [Compound 117, 1-(4-((4-(ethoxymethyl)-4-phenethylpiperidin-1-yl)methyl)phenyl)-3-methylurea]: the ED50 was greater than 10 mg/kg.

With `CC(=O)Nc1ccc(CN2CCC(CCc3ccccc3)(C3OC3C)CC2)cc1` (stereo not drawn) [Compound 118, N-(4-((4-(3-methyloxiran-2-yl)-4-phenethylpiperidin-1-yl)methyl)phenyl)acetamide], the ED50 was greater than 10 mg/kg.

Take `CCNc1ccc(CN2CCC(CCc3ccccc3)(CNC)CC2)cc1` [Compound 119, N-ethyl-4-((4-((methylamino)methyl)-4-phenethylpiperidin-1-yl)methyl)aniline]: the ED50 was greater than 10 mg/kg.

On to `CC(=O)Nc1ccc(CN2CCC(CCc3ccccc3)(C3CCO3)C2)cc1` (stereo not drawn) [Compound 120, N-(4-((3-(oxetan-2-yl)-3-phenethylpyrrolidin-1-yl)methyl)phenyl)acetamide], for which the ED50 was less than 10 mg/kg.

`CCOCC1(CCc2ccccc2)CCN(CC2CCC(NC(C)=O)CC2)CC1.Cl` (stereo not drawn) [Compound 121, N-(4-((4-(ethoxymethyl)-4-phenethylpiperidin-1-yl)methyl)cyclo-hexyl)acetamide HCl]: the ED50 is greater than 10 mg/kg.

Regarding `CCOCC1(OCc2ccccc2)CCN(Cc2ccc(NC(C)=O)cc2)CC1` [Compound 122, N-(4-((4-(benzyloxy)-4-(ethoxymethyl)piperidin-1-yl)methyl)phenyl)acetamide], the ED50 is greater than 10 mg/kg.

In the case of `CC(=O)Nc1ccc(CN2CCC(CCc3ccccc3)(COc3ccccn3)CC2)cc1` [Compound 123, N-(4-((4-phenethyl-4-((pyridin-2-yloxy)methyl)piperidin-1-yl)methyl)phenyl)acetamide], the ED50 is greater than 10 mg/kg.

Consider `CC(=O)Nc1ccc(CN2CCC(CCc3ccccc3)(Oc3ccccn3)CC2)cc1` [Compound 124, N-(4-((4-phenethyl-4-(pyridin-2-yloxy)piperidin-1-yl)methyl)phenyl)acetamide], for which the ED50 was greater than 10 mg/kg.

Regarding `CCOCC1(CCc2ccccc2)CCN(c2ccc(NC(C)=O)cc2)CC1` [Compound 125, N-(4-(4-(ethoxymethyl)-4-phenethylpiperidin-1-yl)phenyl)acetamide], the ED50 was greater than 10 mg/kg.

Take `CCOCC1(CCc2ccccc2)CCN(CCc2ccc(NC(C)=O)cc2)CC1` [Compound 126, N-(4-(2-(4-(ethoxymethyl)-4-phenethylpiperidin-1-yl)ethyl)phenyl)acetamide]: the ED50 is greater than 10 mg/kg.

Take `CCOCC1(CCc2ccccc2)CCN(c2ccc(N(C)C)cc2)CC1` [Compound 127, 4-(4-(ethoxymethyl)-4-phenethylpiperidin-1-yl)-N,N-dimethylaniline]: the ED50 was greater than 10 mg/kg.

Turning to `CCOCC1(CCc2ccccc2)CCN(Cc2ccc(CCOC)cc2)CC1` [Compound 128, 4-(ethoxymethyl)-1-(4-(2-methoxyethyl)benzyl)-4-phenethylpiperidine], the ED50 is greater than 10 mg/kg.

For the molecule `CCOCC1(CCc2ccccc2)CCN(Cc2ccc(COC)cc2)CC1` [Compound 129, 4-(ethoxymethyl)-1-(4-(methoxymethyl)benzyl)-4-phenethylpiperidine HC], the ED50 was greater than 10 mg/kg.

For `CCOCC1(CCc2ccccc2)CCN(Cc2cc(C)c(NC(C)=O)c(C)c2)CC1` [Compound 130], the ED50 is greater than 10 mg/kg.

Turning to `CCOCC1(CCc2ccccc2)CCN(Cc2ccc(CC(C)=O)cc2)CC1` [Compound 131, 1-(4-((4-(ethoxymethyl)-4-phenethylpiperidin-1-yl)methyl)phenyl)propan-2-one], the ED50 was greater than 10 mg/kg.

As for `CCOCC1(COCc2ccccc2)CCN(Cc2ccc(NC(C)=O)cc2)CC1.Cl` [Compound 132, N-(4-((4-(benzyloxymethyl)-4-(ethoxymethyl)piperidin-1-yl)methyl)phenyl)acetamide HCl], the ED50 is greater than 10 mg/kg.

On to `CCOC(=O)C1(CCc2ccccc2)CCCN(Cc2ccc(NC(C)=O)cc2)CC1` (stereo not drawn) [Compound 133, ethyl 1-(4-acetamidobenzyl)-4-phenethylazepane-4-carboxylate], for which the ED50 is greater than 10 mg/kg.

Regarding `CCOCC1(CCc2ccccc2)CCN(Cc2ccc(-c3nccs3)cc2)CC1` [Compound 134, 2-(4-((4-(ethoxymethyl)-4-phenethylpiperidin-1-yl)methyl)phenyl)thiazole], the ED50 was greater than 10 mg/kg.

With `CCOCC1(CCc2ccccc2)CCN(Cc2ccc(-c3nc(C)no3)cc2)CC1.Cl` [Compound 135, 5-(4-((4-(ethoxymethyl)-4-phenethylpiperidin-1-yl)methyl)pheny)-3-methyl-1,2,4-oxadiazole HCl], the ED50 is greater than 10 mg/kg.

For the molecule `CCOCC1(CCc2ccccc2)CCN(Cc2ccc(-c3ncon3)cc2)CC1.Cl` [Compound 136, 3-(4-((4-(ethoxymethyl)-4-phenethylpiperidin-1-yl)methyl)phenyl)-1,2,4-oxadiazole HCl], the ED50 is greater than 10 mg/kg.

In the case of `CCOCC1(CCc2ccccc2)CCN(Cc2ccc(-c3nnco3)cc2)CC1` [Compound 137, 2-(4-((4-(ethoxymethyl)-4-phenethylpiperidin-1-yl)methyl)phenyl)-1,3,4-oxadiazole], the ED50 was greater than 10 mg/kg.

Take `CCOCC1(CCc2ccccc2)CCN(Cc2ccc(-c3nncs3)cc2)CC1` [Compound 138, 2-(4-((4-(ethoxymethyl)-4-phenethylpiperidin-1-yl)methyl)phenyl)-1,3,4-thiadiazole]: the ED50 was greater than 10 mg/kg.

As to `CCOCC1(CCc2ccccc2)CCN(Cc2ccc(-c3cncs3)cc2)CC1` [Compound 139, 5-(4-((4-(ethoxymethyl)-4-phenethylpiperidin-1-yl)methyl)phenyl)thiazole], the ED50 is greater than 10 mg/kg.

For `CCOCC1(CCc2ccccc2)CCN(Cc2ccc(-c3ncc[nH]3)cc2)CC1` [Compound 140, 1-(4-(1H-imidazol-2-yl)benzyl)-4-(ethoxymethyl)-4-phenethylpiperidine], the ED50 was greater than 10 mg/kg.

`CCOCC1(CCc2ccccc2)CCN(Cc2ccc(-c3cnc[nH]3)cc2)CC1` [Compound 141, 1-(4-(1H-imidazol-5-yl)benzyl)-4-(ethoxymethyl)-4-phenethylpiperidine]: the ED50 is greater than 10 mg/kg.

Take `CCOCC1(CCc2ccccc2)CCN(Cc2ccc(CC(=O)O)cc2)CC1` [Compound 142, 2-(4-((4-(ethoxymethyl)-4-phenethylpiperidin-1-yl)methyl)phenyl)acetic acid]: the ED50 is greater than 10 mg/kg.

On to `CCOCC1(CCc2ccccc2)CCN(Cc2ccc(CC(=O)N(C)OC)cc2)CC1` [Compound 143, 2-(4-((4-(ethoxymethyl)-4-phenethylpiperidin-1-yl)methyl)phenyl)-N-methoxy-N-methylacetamide], for which the ED50 is greater than 10 mg/kg.

`CCOCC1(CCc2ccccc2)CCN(Cc2ccc(C(=O)OC)cc2)CC1` [Compound 144, methyl 4-((4-(ethoxymethyl)-4-phenethylpiperidin-1-yl)methyl)benzoate]: the ED50 was greater than 10 mg/kg.

With `CCOCC1(CCc2ccccc2)CCN(Cc2ccc(C(=O)O)cc2)CC1` [Compound 145, 4-((4-(ethoxymethyl)-4-phenethylpiperidin-1-yl)methyl)benzoic acid], the ED50 was greater than 10 mg/kg.
